US6960613B2, “Treatment of neurotic disorders” (H. Lundbeck A/S, priority 1999, dated 2005)

Key:
[1] = test system: footshock-induced ultrasonic vocalisation; test: Footshock-induced ultrasonic vocalisation test in adult rats; format: in vivo, rat; conditions: male Wistar rats, drug given 30 min before test, four 1.0 mA footshocks
From the text: The Footshock-induced Vocalisation Test in Adult Rats. The footshock-induced vocalisation test in adult rats (described in detail in Sánchez C., Effect of serotonergic drugs on footshock-induced ultrasonic vocalization in adult male rats. Behav. Pharmacol. 1993; 4:267-277) is a test for anxiolytic and anti-panic effects. Male rats (Wistar WU, Charles River, Germany), weighing 150-175 g at the beginning of the study were used. Briefly, test cages (22 cm×22 cm×22 cm) made of grey Perspex and equipped with a metal grid floor were used. Footshocks were delivered from a two pole shocker and a microphone sensitive to ultrasounds in the range of 20-30 kHz was placed in the centre of the lid of the test cage. The ultrasounds were sent from the microphone to a preamplifier and converted from AC signals to DC signals in a signal rectifier. The accumulated time, in which the voltage of the rectified signal was larger than the voltage of a previously determined threshold level, was recorded. Twenty-four hours before the first test session the animals were primed. A rat was placed in each test cage and received, immediately thereafter, four 1.0 mA inescapable footshocks each of a duration of 10 sec and with an intershock interval of 5 sec. The animals were left in the test cage for 6 min after the last shock. […] The total time spent on vocalisation was recorded. […]

[2] = test system: schedule-induced polydipsia (water intake); test: Schedule-induced polydipsia in rats; format: in vivo, rat; conditions: male wistar rats, oral 60 min prior to testing; Citalopram 40 mg/kg, Lu 26-054 20 mg/kg
From the text: Schedule-induced Polydipsia Food deprived rats exposed to a procedure in which food is delivered intermittently will drink large amounts of water if given the opportunity to do so. This behavioural phenomenon is called schedule-induced polydipsia and can be considered as an excessive expression of a normal behaviour. Schedule-induced polydipsia is regarded as a model of obsessive-compulsive disorder (Woods et al. 1993). Male wistar rats (Møllegard) housed in pairs and kept on a food-restricted diet (80% of normal body weight) for 2 weeks before the start of testing and throughout the duration of testing. To induce polydipsia rats were placed in test chambers where a pellet dispenser automatically dispensed one 60 mg food pellet every 60 seconds. Water was available at all times in the test chamber. Rats were tested 4-5 times per week, after 3-4 weeks training 70% of the rats were drinking >10 ml per 30 min test session. Once the rats had attained a steady drinking level compounds could be tested. Citalopram (40 mg/kg) or Lu 26-054 (20 mg/kg) were administered orally 60 min prior to testing and at 10:00 on the non-test days. The water intake was presented as a percentage of the pre-dosing (baseline) level.

[3] = test system: mice black and white box behaviour; test: Black and White Box Test in mice; format: in vivo, mouse; conditions: male mice, pretreatment time 30 min, test duration 5 min
Description: Black and White Box Test This is a test for anxiolytic effects. The test model is further described in Sánchez, C. (1995) Pharmacol. Toxicol. 77, 71-78. Male mice (Lundbeck strain, Charles River, Germany) weighing 30-35 g were housed in groups of 4 in macrolon cages type II under a reversed 12 h day/night cycle (lights off 7 p.m.). The mice were adapted to the reversed light/dark cycle for at least 3 weeks prior to testing. The room temperature (21±2° C.), relative humidity (55±5%), and air exchange (16 times per h) were automatically controlled. The animals had free access to commercial food pellets and water. The test box used was designed as described by Sánchez (1995) (supra). […] The lower row of photocells (2 cm above cage floor) detected horizontal locomotor activity (crossing, entries, and time in each compartment), whereas the upper row of photocells (5 cm above cage floor) detected rearing activity. The accumulated data for 1 min intervals were recorded from 4 test boxed simultaneously and stored in a Paradox data base. […] The test duration was 5 min and the number of rears and line crossings between squares in both the black and the white compartment, number of entries into the black compartment and time spent in the white compartment were assessed.

Row | Structure (SMILES) | maximum effect, inhibition of vocalisation [1] | water intake (percentage of pre-dosing baseline level) [2] | effect in black and white box model [3] | inhibition of vocalisation [1]
1 | CN(C)CCCC1(c2ccc(F)cc2)OCc2cc(C#N)ccc21 (racemic) [citalopram, reference compound] | 60-70% | without effect |  | 
2 | CN(C)CCC[C@@]1(c2ccc(F)cc2)OCc2cc(C#N)ccc21 [escitalopram, (S)-1-[3-(dimethyl-amino)propyl]-1-(4-fluorophenyl)-1,3-dihydro-5-isobenzofurancarbonitrile] |  | significant reduction in water intake | prominent effects | able to inhibit vocalisation completely
